Values quoted from earlier work in patent publication US10064865B2, “Composition comprising phosphodiesterase type 5 inhibitor for inhibiting apoptosis of nerve cells” (ARIBIO INC., priority 2012, dated 2018).

Tested on: B-chronic lymphocytic leukemia cells
Conditions: Marika Sarfati et al., BLOOD 2003; cited from earlier work

## CCCc1nn(C)c2c(=O)[nH]c(-c3cc(S(=O)(=O)N4CCN(C)CC4)ccc3OCC)nc12 [sildenafil]
  apoptosis of B-chronic lymphocytic leukemia cells: induce caspase-dependent apoptosis
